Our source for the IC50 values is patent US12091425B2 (AMGEN INC., priority 2016, dated 2024).

The target of one test is T1, Mcl-1/Bim interaction, recombinant human Mcl-1 (171-327) (Homo sapiens, UniProt Q07820).
T1 construct: made in house
T1 sequence (Q07820 171-327): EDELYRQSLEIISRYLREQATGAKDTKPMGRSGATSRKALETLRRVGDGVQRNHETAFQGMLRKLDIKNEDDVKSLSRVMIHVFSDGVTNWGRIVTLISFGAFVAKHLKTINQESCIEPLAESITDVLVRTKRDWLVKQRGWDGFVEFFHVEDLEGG
The test is described as follows: Cell free Mcl-1: Bim Affinity Assay (Mcl-1 HTRF). It counts as binding. The settings on record: TR-FRET, 0.1 nM Mcl-1 (171-327), 0.05 nM biotin-Bim (51-76). In outline:
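Displacement of biotinylated Bim 51-76 peptide is followed by TR-FRET. Incubation runs overnight. Duplicate points are fitted with a four-parameter sigmoid to yield IC50.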
(In general: Time-resolved FRET reads energy transfer from a long-lived donor to a nearby acceptor.)
Broadly, the IC50 is the point on the concentration scale where inhibition reaches its midpoint. Turning to `C[C@@H]1CC/C=C/[C@H](O)[C@]2(C)CC[C@H]2CN2C[C@@]3(CCCc4cc(Cl)ccc43)COc3ccc(cc32)C(=O)NS1(=O)=O` (single isomer, unassigned) [Example 118], the IC50 is 34.9 nM. `O=C1NS(=O)(=O)[C@H](C(F)(F)F)CCCC[C@H](O)[C@@H]2CC[C@H]2CN2C[C@@]3(CCCc4cc(Cl)ccc43)COc3ccc1cc32` (single isomer, unassigned) [Example 432]: the IC50 was 0.996 nM. Still for that read-out and setting: for `CC[C@@H]1CC/C=C/[C@H](OCC(=O)N2CCC(F)(F)CC2)[C@@H]2CC[C@H]2CN2C[C@@]3(CCCc4cc(Cl)ccc43)COc3ccc(cc32)C(=O)NS1(=O)=O` [Example 998, (1S,3′R,6′R,7′S,8′E,12′R)-6-chloro-7′-(2-(4,4-difluoro-1-piperidinyl)-2-oxoethoxy)-12′-ethyl-3,4-dihydro-2H,15′H-spiro[naphthalene-1,22′-[20]oxa[13]thia[1,14]diazatetracyclo[14.7.2.0^3,6.0^19,24]pentacosa [8,16,18,24]tetraen]-15′-one 13′,13′-dioxide] the value was 2.14 nM; for `C[C@@H]1[C@@H](C)C[C@H](CCN2CCOCC2)/C=C/[C@@H]2CC[C@H]2CN2C[C@@]3(CCCc4cc(Cl)ccc43)COc3ccc(cc32)C(=O)NS1(=O)=O` [Example 115, (1S,3′R,6′S,7′E,9′R,11′S,12′R)-6-chloro-11′,12′-dimethyl-9′-(2-(4-morpholinyl)ethyl)-3,4-dihydro-2H,15′H-spiro[naphthalene-1,22′-[20]oxa[13]thia[1,14]diazatetracyclo[14.7.2.0^3,6.0^19,24]pentacosa[7,16,18,24]tetraen]-15′-one 13′,13′-dioxide], 2.71 nM; for `O=C1NS(=O)(=O)C/C=C/CNC(=O)[C@@H]2CC[C@H]2CN2C[C@@]3(CCCc4cc(Cl)ccc43)COc3ccc1cc32` (single isomer, unassigned) [Example 97, (1S,3′R,6′R,10′E)-6-chloro-3,4-dihydro-2H,7′H,15′H-spiro[naphthalene-1,22′-[20]oxa[13]thia[1,8,14]triazatetracyclo[14.7.2.0^3,6.0^19,24]pentacosa[10,16,18,24]tetraen]-7′,15′-dione 13′,13′-dioxide or (1S,3′R,6′R,10′Z)-6-chloro-3,4-dihydro-2H,7′H,15′H-spiro[naphthalene-1,22′-[20]oxa[13]thia[1,8,14]triazatetracyclo[14.7.2.0^3,6.0^19,24]pentacosa[10,16,18,24]tetraen]-7′,15′-dione 13′,13′-dioxide], 12.6 nM. Consider `CC[C@@H]1CC/C=C/[C@H](OCC(=O)OC)[C@@H]2CC[C@H]2CN2C[C@@]3(CCCc4cc(Cl)ccc43)COc3ccc(cc32)C(=O)NS1(=O)=O` [Example 991, methyl (((1S,3′R,6′R,7′S,8′E,12′R)-6-chloro-12′-ethyl-13′,13′-dioxido-15′-oxo-3,4-dihydro-2H-spiro[naphthalene-1,22′-[20]oxa[13]thia[1,14]diazatetracyclo[14.7.2.0^3,6.0^19,24]pentacosa [8,16,18,24]tetraen]-7′-yl)oxy)acetate], for which the IC50 worked out at 0.644 nM.

Still in this test, the particulars now being: cell free Mcl-1:Bim TR-FRET, recombinant human Mcl-1 (171-327).
Regarding `O=C1CC[C@@H]2CC[C@H]2CN2C[C@@]3(CCCc4cc(Cl)ccc43)COc3ccc(cc32)C(=O)NS(=O)(=O)CCN1` [Example 945, (1S,3′R,6′S)-6-chloro-3,4-dihydro-2H,9′H,15′H-spiro[naphthalene-1,22′-[20]oxa[13]thia[1,10,14]triazatetracyclo[14.7.2.0^3,6.0^19,24]pentacosa[16,18,24]triene]-9′,15′-dione 13′,13′-dioxide], the concentration for half-maximal inhibition (IC50) was 12 nM. Still for that read-out and setting: for “(3R,6R,7R,11E,22S)-6′-chloro-7-hydroxy-3′,4′-dihydro-2′H,15H-spiro[9,20-dioxa-13-thia-1,14-diazatetracyclo[14.7.2.0^3,6.0^19,24]pentacosa-11,16,18,24-tetraene-22,1′-naphthalen]-15-one 13,13-dioxide or (3R,6R,7S,11E,22S)-6′-chloro-7-hydroxy-3′,4′-dihydro-2′H,15H-spiro[9,20-dioxa-13-thia-1,14-diazatetracyclo[14.7.2.0^3,6.0^19,24]pentacosa-11,16,18,24-tetraene-22,1′-naphthalen]-15-one 13,13-dioxide [Example 863]” the value was 5.38 nM; for `O=C1NS(=O)(=O)CCOCCC[C@@H]2CC[C@H]2CN2C[C@@]3(CCCc4cc(Cl)ccc43)COc3ccc1cc32` (single isomer, unassigned) [Example 815], 1.26 nM; for “N-((1S,3′R,6′R,7′S)-6-chloro-13′,13′-dioxido-15′-oxo-3,4-dihydro-2H-spiro[naphthalene-1,22′-[20]oxa[13]thia[1,14]diazatetracyclo[14.7.2.0^3,6.0^19,24]pentacosa [16,18,24]trien]-7′-yl)acetamide or N-((1S,3′R,6′R,7′R)-6-chloro-13′,13′-dioxido-15′-oxo-3,4-dihydro-2H-spiro[naphthalene-1,22′-[20]oxa[13]thia[1,14]diazatetracyclo[14.7.2.0^3,6.0^19,24]pentacosa [16,18,24]trien]-7′-yl)acetamide [Example 934]”, 2.07 nM. As to `O=C1NS(=O)(=O)C[C@@H](C2CC2)C/C=C/[C@H](O)[C@@H]2CC[C@H]2CN2C[C@@]3(CCCc4cc(Cl)ccc43)COc3ccc1cc32` (single isomer, unassigned) [Example 684], the IC50 amounted to 11 nM.

Take `O=C1NS(=O)(=O)C[C@@H](CO)/C=C/C[C@H](O)[C@@H]2CC[C@H]2CN2C[C@@]3(CCCc4cc(Cl)ccc43)COc3ccc1cc32` (single isomer, unassigned) [Example 707]: the IC50 came out at 2.25 nM.

As to `O=C1NS(=O)(=O)CCCCC(O)CC2CCC2CN2CC3(CCCc4cc(Cl)ccc43)COc3ccc1cc32` (single isomer, unassigned) [Example 881, (1S,3′R,6′S,8′S)-6-chloro-8′-hydroxy-3,4-dihydro-2H,15′H-spiro[naphthalene-1,22′-[20]oxa[13]thia[1,14]diazatetracyclo[14.7.2.0^3,6.0^19,24]pentacosa[16,18,24]trien]-15′-one 13′,13′-dioxide or (1S,3′R,6′S,8′R)-6-chloro-8′-hydroxy-3,4-dihydro-2H,15′H-spiro[naphthalene-1,22′-[20]oxa[13]thia[1,14]diazatetracyclo[14.7.2.0^3,6.0^19,24]pentacosa[16,18,24]trien]-15′-one 13′,13′-dioxide], the IC50 came out at 22.2 nM.

Consider `CC[C@@H]1CC/C=C/C(=O)[C@@H]2CC[C@H]2CN2C[C@@]3(CCCc4cc(Cl)ccc43)COc3ccc(cc32)C(=O)NS1(=O)=O` [Example 915, (1S,3′R,6′R,8′E,12′R)-6-chloro-12′-ethyl-3,4-dihydro-2H,7′H,15′H-spiro[naphthalene-1,22′-[20]oxa[13]thia[1,14]diazatetracyclo[14.7.2.0^3,6.0^19,24]pentacosa [8,16,18,24]tetraene]-7′,15′-dione 13′,13′-dioxide], for which the IC50 amounted to 16.2 nM. For `CC(C)[C@@H]1CCCC[C@@H](O)[C@@H]2CC[C@H]2CN2C[C@@]3(CCCc4cc(Cl)ccc43)COc3ccc(cc32)C(=O)NS1(=O)=O` (single isomer, unassigned) [Example 754], the IC50 turned out to be 8.93 nM. The same measure, in the same setting: for `O=C1NS(=O)(=O)CC/C=C/C[C@@H](O)[C@@H]2CC[C@H]2CN2C[C@@]3(CCCc4cc(Cl)ccc43)COc3ccc1cc32` (single isomer, unassigned) [Example 844] the value was 11.1 nM; for `O=C1NS(=O)(=O)C[C@H](O)/C=C/C[C@H](O)[C@@H]2CC[C@H]2CN2C[C@@]3(CCCc4cc(Cl)ccc43)COc3ccc1cc32` (single isomer, unassigned) [Example 598], 1.49 nM; for `CC(=O)N(C)[C@H]1CCCCCS(=O)(=O)NC(=O)c2ccc3c(c2)N(C[C@@H]2CC[C@H]21)C[C@@]1(CCCc2cc(Cl)ccc21)CO3` (single isomer, unassigned) [Example 940], 18.6 nM. Same read-out and setting: the figure for `COC1C=CCCC(C(C)(C)O)S(=O)(=O)NC(=O)c2ccc3c(c2)N(CC2CCC21)CC1(CCCc2cc(Cl)ccc21)CO3` (single isomer, unassigned) [Example 682] is 1.78 nM. On the same count and under the same terms, for `COc1cccc(NC(=O)C[C@@H]2CC/C=C/[C@H](O)[C@@H]3CC[C@H]3CN3C[C@@]4(CCCc5cc(Cl)ccc54)COc4ccc(cc43)C(=O)NS2(=O)=O)c1` (single isomer, unassigned) [Example 628] the value was 3.9 nM; for `O=C1NS(=O)(=O)CCCOC[C@@H](O)[C@@H]2CC[C@H]2CN2C[C@@]3(CCCc4cc(Cl)ccc43)COc3ccc1cc32` (single isomer, unassigned) [Example 923, (3R,6R,7S,22S)-6′-chloro-7-hydroxy-3′,4′-dihydro-2′H,15H-spiro[9,20-dioxa-13-thia-1,14-diazatetracyclo[14.7.2.0^3,6.0^19,24]pentacosa-16,18,24-triene-22,1′-naphthalen]-15-one 13,13-dioxide or (3R,6R,7R,22S)-6′-chloro-7-hydroxy-3′,4′-dihydro-2′H,15H-spiro[9,20-dioxa-13-thia-1,14-diazatetracyclo[14.7.2.0^3,6.0^19,24]pentacosa-16,18,24-triene-22,1′-naphthalen]-15-one 13,13-dioxide], 17.8 nM; for `O=C1NS(=O)(=O)CCCCC[C@@H](O)[C@@H]2CC[C@H]2CN2C[C@@]3(CCCc4cc(Cl)ccc43)COc3ccc1cc32` [Example 843, (1S,3′R,6′R,7′R)-6-chloro-7′-hydroxy-3,4-dihydro-2H,15′H-spiro[naphthalene-1,22′-[20]oxa[13]thia[1,14]diazatetracyclo[14.7.2.0^3,6.0^19,24]pentacosa [16,18,24]trien]-15′-one 13′,13′-dioxide], 6.8 nM.

For `O=C(CO)N[C@@H]1CCCCCS(=O)(=O)NC(=O)c2ccc3c(c2)N(C[C@@H]2CC[C@H]21)C[C@@]1(CCCc2cc(Cl)ccc21)CO3` (single isomer, unassigned) [Example 939], the IC50 came to 6.67 nM.
